Source: patent US10167507B2, “Metabolic diseases-related odorant receptor genes and use thereof” (INDUSTRY-ACADEMIC COOPERATION FOUNDATION, YONSEI UNIVERSITY, priority 2010, dated 2019)
Each block holds one compound with its values, some of them ahead of it.

Columns and labels:
[1] = tested on: olfactory receptors in liver tissue; assay: OligoDNA microarray, liver tissue of HFD mice fed odor components; type: in vivo, mouse
Excerpt: (§1) The obesity-inducing control diet used in the test was high-fat diet (HFD: 40% fat calorie, 17 g lard+3% corn oil/100 g diet). Diets supplemented with an odor component had the same composition as HFD, except that each of various types of odor components (indol-3-carbinol, oleuropein, cedryl acetate, α-cedrene and piperine) having anti-obesity efficacy was contained in 0.02-0.05% concentration. Indo)-3-carbinol, oleuropein, cedryl acetate, a-cedrene and piperine were purchased from Sigma-Aldrich.
(§2) After adding Trizol agent to visceral fat or liver tissue, the mixture was homogenized and centrifuged at 12,000×g for 10 min at 4° C. The supernatant was transferred to a new tube to remove fat layer. Then, 200 μl of chloroform was added to the tube, followed by vortexing. The same procedure was repeated twice and then the supernatant was transferred to a new tube, followed by addition of isopropanol and the supernatant at 1:1 ratio. The mixture was vigorously shaken 10 times and then incubated for 10 min at room temperature, followed by centrifugation at 12,000×g for 10 min at 4° C. to remove the supernatant. After adding 1 mL of 70% ethanol to the remaining pellet, it was centrifuged at 7,500×g for 5 min at 4° C. After removing the ethanol, the RNA pellet contained in the tube was dried for 5 min at 4° C. and dissolved in nuclease-free water. The RNA sample concentration was measured at a wavelength of 260 nm and 280 nm using a UV/VIS spectrophotometer (Beckman coulter, DU730) and the integrity of RNA sample was verified by agarose gel electrophoresis.
(§3) DNA microarry analysis using RNAs of visceral fat and liver tissue was conducted by GENOCHECK (CO., LTD.). RNA samples were pooled from 10 mice in each experimental group and subjected to microarray experiments in triplicate for the test of reproducibility. NimbleGen Mouse Whole Oligo 12-plex chip used in this experiment was prepared by triplicating 42,576 genes using Mouse Genome Build 8 as database. In NimbleGen mouse Whole Oligo 12-plex chip, 137,090 spots excluded control group gene were spotted by 16 μm×16 μm size in 17.4 mm×13 mm size. 42,576 oligo included […] genes which are known their functions and 5,431 transcripts and EST sequences which are unknown their functions. 10-50 μg of total RNA was added in oligo-dT primer, reverse transcriptase, dNTP, Cy3-dUTP and Cy5-dUTP, and reverse-transcripted according to the kit manufacturer's recommendations. The resultant was purified using cartridge, dried and dissolved in hybridization buffer solution (30 μL). The microarray was placed in hybridization cassette, heated at 95-100° C. for 5 min, mixed independently to each of RNA labeled with Cy3 and Cy5, and hybridized at 45° C. for 18 hrs. The slide was washed twice in solution containing 1×SSC and 0.1% SDS for 5 min, washed in 1×SSC for 5 min and dried to analyze.
(§4) The profile for olfactory receptors in which the expression was regulated by more than 2-fold change due to intake of odor components at each tissue was shown in Tables 5. As a result, it was determined that various types of odor components having anti-obesity efficacy regulated a plurality of olfactory receptors in peripheral tissues.

[2] = tested on: olfactory receptors in visceral fat tissue; assay: OligoDNA microarray, visceral fat tissue of HFD mice fed odor components; type: in vivo, mouse
Description: DNA microarry analysis using RNAs of visceral fat and liver tissue was conducted by GENOCHECK (CO., LTD.). RNA samples were pooled from 10 mice in each experimental group and subjected to microarray experiments in triplicate for the test of reproducibility. NimbleGen Mouse Whole Oligo 12-plex chip used in this experiment was prepared by triplicating 42,576 genes using Mouse Genome Build 8 as database. In NimbleGen mouse Whole Oligo 12-plex chip, 137,090 spots excluded control group gene were spotted by 16 μm×16 μm size in 17.4 mm×13 mm size. 42,576 oligo included 137,145 genes which are known their functions and 5,431 transcripts and EST sequences which are unknown their functions. 10-50 μg of total RNA was added in oligo-dT primer, reverse transcriptase, dNTP, Cy3-dUTP and Cy5-dUTP, and reverse-transcripted according to the kit manufacturer's recommendations. The resultant was purified using cartridge, dried and dissolved in hybridization buffer solution (30 μL). The microarray was placed in hybridization cassette, heated at 95-100° C. for 5 min, mixed independently to each of RNA labeled with Cy3 and Cy5, and hybridized at 45° C. for 18 hrs. The slide was washed twice in solution containing 1×SSC and 0.1% SDS for 5 min, washed in 1×SSC for 5 min and dried to analyze.

[3] = tested on: olfactory receptors in visceral fat and liver tissues; assay: OligoDNA microarray, visceral fat and liver tissues of HFD mice fed odor components (tissue not separated in text); type: in vivo; conditions: supplemented to mouse fed high-fat diet for 10 weeks
Excerpt: as §1, §2, §3, §4

[4] = tested on: HSL (hormone sensitive lipase); assay: Western blotting, protein phosphorylation of HSL; type: in vivo, mouse
Description: (§5) A certain amount of visceral fat or liver tissues in mortar was homogenized with liquid nitrogen and cell lysis buffer. The mixture was transferred to a new tube, followed by vortexing. After centrifugation at 13,000×g for 20 min at 4° C., the middle layer of the tube was obtained and proteins were quantified by Bradford method. 50 μg of protein was electrophorized to SDS polyacrylamide gel, followed by electroblotting to PVDF hyper film. The protein was reacted using an appropriate antibody for the protein and detected by ECL, whereby insulin resistance, adipocyte differentiation, lipid metabolism or energy consumption-related mechanism of phytochemical components was investigated in the protein level.
(§6) In order to verify this, protein phosphorylations of HSL (hormone sensitive lipase), CREB (cAMP-responsive element binding protein) and AKT (v-akt murine thymoma viral oncogene) were evaluated by western blotting analysis.

[5] = tested on: AKT (v-akt murine thymoma viral oncogene); assay: Western blotting, protein phosphorylation of AKT; type: in vivo, mouse
Description: as §5, §6

[6] = tested on: obesity and metabolic diseases-related genes in visceral fat tissue; assay: RT-PCR of obesity and metabolic diseases-related genes, visceral fat tissue; type: in vivo, mouse; conditions: odor component-supplemented group to the HFD control group
Description: After adding 1 mL of Trizol agent (Invitrogen, USA) per 0.1 g of visceral fat or liver tissues, the mixture was homogenized and centrifuged at 12,000×g for 10 min at 4° C. The supernatant was transferred to a new tube and 200 μl of chloroform was added to the tube, followed by vortexing. The same procedure was repeated twice and then the supernatant was transferred to a new tube, followed by addition of isopropanol and the supernatant at 1:1 ratio. The mixture was vigorously shaken 10 times and then incubated for 10 min at room temperature, followed by centrifugation at 12,000×g for 10 min at 4° C. to remove the supernatant. After adding 1 mL of 70% ethanol to the remaining pellet, it was centrifuged at 7,500×g for 5 min at 4° C. After removing the ethanol, the RNA pellet contained in the tube was dried for 5 min at 4° C. and dissolved in nuclease-free water. The RNA sample concentration was measured at a wavelength of 260 nm and 280 nm using a UV/VIS spectrophotometer (Beckman coulter, DU730) and the integrity of RNA sample was verified by agarose gel electrophoresis. The RNA sample obtained from the visceral fat or liver tissues was trasnscribed using oligo dT primer and reverse transcriptase (GIBCO BRL, Gaithersburg, Md., USA) to synthesize cDNA. The PCR amplification was performed using the cDNA as templates and primers complementary to cDNA [NT] flanking sequence. 1 μl of the amplified products were resolved on agarose gel electrophoresis to verify DNA band.

[7] = tested on: CREB (cAMP-responsive element binding protein); assay: Western blotting, protein phosphorylation of CREB; type: in vivo, mouse
Description: as §5, §6

[8] = supplemented to HFD-fed mouse 10 weeks
[9] = odor component-supplemented group to the HFD control group
[10] = western blotting, compared to the HFD control group

- Olfr16 expression fold change to HFD group [1, 8]: 0.47
- Olfr116 expression fold change to HFD group [1, 8]: 2.12
- Olfr178 expression fold change to HFD group [1, 8]: 2.06
- Olfr196 expression fold change to HFD group [1, 8]: 0.45
- Olfr259 expression fold change to HFD group [1, 8]: 0.50
- Olfr290 expression fold change to HFD group [1, 8]: 2.11
- Olfr466 expression fold change to HFD group [1, 8]: 0.49
- Olfr686 expression fold change to HFD group [1, 8]: 0.35
- Olfr1045 expression fold change to HFD group [1, 8]: 0.45
- Olfr1153 expression fold change to HFD group [1, 8]: 2.82
- Olfr1216 expression fold change to HFD group [1, 8]: 0.41
- Olfr1329 expression fold change to HFD group [1, 8]: 0.48
- Olfr1337 expression fold change to HFD group [1, 8]: 0.49
- Olfr380 expression fold change to HFD group [2, 8]: 2.20
- Olfr909 expression fold change to HFD group [2, 8]: 3.45
- Olfr972 expression fold change to HFD group [2, 8]: 0.43
- Olfr1093 expression fold change to HFD group [2, 8]: 0.42
- Olfr1165 expression fold change to HFD group [2, 8]: 0.39
- Olfr1462 expression fold change to HFD group [2, 8]: 2.26
Compound: OCc1c[nH]c2ccccc12 [Indole-3 carbinol]

Compound: CC(=O)O[C@]1(C)CC[C@@]23C[C@@H]1C(C)(C)[C@@H]2CC[C@H]3C [cedryl acetate]
- expression of olfactory receptor 38 increased [3]: more than 2 fold change
- expression of olfactory receptor 77 decreased [3]: more than 2 fold change
- expression of olfactory receptor 275 increased [3]: more than 2 fold change
- expression of olfactory receptor 290 increased [3]: more than 2 fold change
- expression of olfactory receptor 305 increased [3]: more than 2 fold change
- expression of olfactory receptor 341 decreased [3]: more than 2 fold change
- expression of olfactory receptor 380 increased [3]: more than 2 fold change
- expression of olfactory receptor 417 decreased [3]: more than 2 fold change
- expression of olfactory receptor 618 decreased [3]: more than 2 fold change
- expression of olfactory receptor 663 increased [3]: more than 2 fold change
- expression of olfactory receptor 878 increased [3]: more than 2 fold change
- expression of olfactory receptor 1058 increased [3]: more than 2 fold change
- expression of olfactory receptor 1104 increased [3]: more than 2 fold change
- expression of olfactory receptor 1123 increased [3]: more than 2 fold change
- expression of olfactory receptor 1125 increased [3]: more than 2 fold change
- expression of olfactory receptor 1136 decreased [3]: more than 2 fold change
- expression of olfactory receptor 1157 decreased [3]: more than 2 fold change
- expression of olfactory receptor 1165 decreased [3]: more than 2 fold change
- expression of olfactory receptor 1442 increased [3]: more than 2 fold change
- expression of olfactory receptor 38 [1]: increased
- expression of olfactory receptor 77 [1]: decreased
- expression of olfactory receptor 275 [1]: increased
- expression of olfactory receptor 878 [1]: increased
- Olfr38 expression fold change to HFD group [1, 8]: 2.39
- Olfr77 expression fold change to HFD group [1, 8]: 0.5
- Olfr275 expression fold change to HFD group [1, 8]: 2.64
- Olfr305 expression fold change to HFD group [1, 8]: 2.21
- Olfr878 expression fold change to HFD group [1, 8]: 2.76
- Olfr77 expression fold change to HFD group ([1]; supplemented to HFD-fed mouse 10 weeks, listed as Cedryl acetate): 0.50
- HSL phosphorylation, increase (change rate) [4, 9]: 46% increase
- phosphorylation of HSL [4, 10]: significantly increased
- AKT phosphorylation, increase (change rate) [5, 9]: 33% increase
- phosphorylation of AKT [5, 10]: significantly increased
- C/EBPα gene expression, decrease (change rate) [6]: 36% decrease
- CPT1 gene expression, increase (change rate) [6]: 47% increase^
- FAS gene expression, decrease (change rate) [6]: 43% decrease
- IL-6 gene expression, decrease (change rate) [6]: 74% decrease
- PGC1α gene expression, increase (change rate) [6]: 57% increase^
- PPARγ2 gene expression, decrease (change rate) [6]: 25% decrease
- SIRT1 gene expression, increase (change rate) [6]: 650% increase ^
- TNFα gene expression, decrease (change rate) [6]: 99% decrease
- UCP1 gene expression, increase (change rate) [6]: 899% increase ^
- UCP3 gene expression, increase (change rate) [6]: 65% increase^
- aP2 gene expression, decrease (change rate) [6]: 33% decrease
- expression of olfactory receptor 290 [2]: increased
- expression of olfactory receptor 341 [2]: decreased
- expression of olfactory receptor 380 [2]: increased
- expression of olfactory receptor 1104 [2]: increased
- expression of olfactory receptor 1165 [2]: decreased
- Olfr290 expression fold change to HFD group [2, 8]: 2.40
- Olfr341 expression fold change to HFD group [2, 8]: 0.32
- Olfr380 expression fold change to HFD group [2, 8]: 2.14
- Olfr417 expression fold change to HFD group [2, 8]: 0.42
- Olfr618 expression fold change to HFD group [2, 8]: 0.43
- Olfr663 expression fold change to HFD group [2, 8]: 2.04
- Olfr1058 expression fold change to HFD group [2, 8]: 2.18
- Olfr1104 expression fold change to HFD group [2, 8]: 3.22
- Olfr1123 expression fold change to HFD group [2, 8]: 2.64
- Olfr1125 expression fold change to HFD group [2, 8]: 2.07
- Olfr1136 expression fold change to HFD group [2, 8]: 0.43
- Olfr1157 expression fold change to HFD group [2, 8]: 0.46
- Olfr1165 expression fold change to HFD group [2, 8]: 0.36
- Olfr1442 expression fold change to HFD group [2, 8]: 2.18
- CREB phosphorylation, increase (change rate) [7, 9]: 39% increase
- phosphorylation of CREB [7, 10]: significantly increased

- expression of olfactory receptor 38 increased [3]: more than 2 fold change
- expression of olfactory receptor 878 increased [3]: more than 2 fold change
- expression of olfactory receptor 1045 decreased [3]: more than 2 fold change
- expression of olfactory receptor 1222 increased [3]: more than 2 fold change
- expression of olfactory receptor 38 [1]: increased
- expression of olfactory receptor 878 [1]: increased
- expression of olfactory receptor 1045 [1]: decreased
- Olfr38 expression fold change to HFD group [1, 8]: 3.83
- Olfr878 expression fold change to HFD group [1, 8]: 5.87
- Olfr1045 expression fold change to HFD group [1, 8]: 0.43
- Olfr1222 expression fold change to HFD group [1, 8]: 2.15
Compound: CC1=CC[C@@]23C[C@@H]1C(C)(C)[C@@H]2CC[C@H]3C [α-cedrene]
